# Test results: patent US20220304992A1, “METHODS OF REJUVENATING AGED TISSUE BY INHIBITING 15-HYDROXYPROSTAGLANDIN DEHYDROGENASE (15-PGDH)” (The Board of Trustees of the Leland Stanford Junior …, priority 2019, published 2022)
# System: EP4 receptor on aged myofibers
# Test: SW treatment of aged EP4f/f mice with MCK-Cre ablation of EP4 in myofibers
# Assay type: in vivo, mouse
# Conditions: loss of EP4 expression in myofibers, SW one month
# Excerpt: We performed all experiments and protocols in compliance with the institutional guidelines of Stanford University and Administrative Panel on Laboratory Animal Care (APLAC). Middle aged (18-20 mo.) and aged (>24 mo.) mice C57BL/6 were obtained the US National Institute on Aging (NIA) for aged muscle studies, and young (2-4 mo.) wild-type C57BL/6 mice from Jackson Laboratory. INK-ATTAC mice were generated as previously described (1). INK-ATTAC healthspan assessments. INK-ATTAC mice were crossed onto the C57BL6/J genetic background and maintained in specific-pathogen free housing on a 12-hour dark/light cycle for study duration. At 12 months of age, male mice were either utilized for baseline healthspan assessments and terminal muscle harvest or randomized to receive twice-weekly vehicle or AP20187 (2 mg/kg intraperitoneal injection; B/B homodimerizer, Clontech) until assessment and sacrifice at 28 months of age (2). […] Time and distance to exhaustion was performed as previously described (4) for SW-treated mice and their controls. […]
# The peak isometric torque (N·mm) of the ankle plantarflexors was assessed as previously described (21, 22). […]
structure (smiles),measurement,value
"CCCC[S+]([O-])c1sc2nc(-c3cccs3)cc(-c3ccccc3)c2c1N (centres unmarked) [SW033291, 2-(butylsulfinyl)-4-phenyl-6-(thiophen-2-yl)thieno[2,3-b]pyridin-3-amine]",beneficial effect on muscle mass,abrogated
same,beneficial effect on muscle strength,abrogated
